Laboratory results reported in ChEMBL document CHEMBL3991601, “The target landscape of clinical kinase drugs” (Science, 2017).
pKd: −log10 of the molar value. The source made the active and inactive calls. For most assays here, no stated cut-off is given here; in the data, actives have a measured Kd and inactives only a lower limit.

Assays:
[1] = target: Protein kinase C delta type (Homo sapiens, UniProt Q05655)
[2] = target: Proto-oncogene tyrosine-protein kinase Src (Homo sapiens, UniProt P12931)
Chain of Proto-oncogene tyrosine-protein kinase Src (P12931 2-536 limits assumed): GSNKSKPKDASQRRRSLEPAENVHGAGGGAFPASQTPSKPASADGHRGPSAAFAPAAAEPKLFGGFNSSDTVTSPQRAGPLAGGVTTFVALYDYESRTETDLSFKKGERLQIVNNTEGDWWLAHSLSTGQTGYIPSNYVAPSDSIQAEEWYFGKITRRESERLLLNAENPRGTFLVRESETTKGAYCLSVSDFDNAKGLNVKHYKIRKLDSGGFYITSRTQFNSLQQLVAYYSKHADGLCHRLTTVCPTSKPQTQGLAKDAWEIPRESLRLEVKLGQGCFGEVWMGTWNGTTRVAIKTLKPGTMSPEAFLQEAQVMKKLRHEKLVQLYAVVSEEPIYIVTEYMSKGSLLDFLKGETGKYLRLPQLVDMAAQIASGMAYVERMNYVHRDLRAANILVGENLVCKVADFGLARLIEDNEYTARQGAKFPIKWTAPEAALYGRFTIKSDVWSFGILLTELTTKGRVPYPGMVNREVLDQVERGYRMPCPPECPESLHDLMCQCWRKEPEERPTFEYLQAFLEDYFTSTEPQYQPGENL

[3] = target: cAMP-dependent protein kinase catalytic subunit alpha (Homo sapiens, UniProt P17612)
[4] = target: T1, STE20-related kinase adapter protein alpha (Homo sapiens, UniProt Q7RTN6)
T1 sequence (Q7RTN6 whole entry): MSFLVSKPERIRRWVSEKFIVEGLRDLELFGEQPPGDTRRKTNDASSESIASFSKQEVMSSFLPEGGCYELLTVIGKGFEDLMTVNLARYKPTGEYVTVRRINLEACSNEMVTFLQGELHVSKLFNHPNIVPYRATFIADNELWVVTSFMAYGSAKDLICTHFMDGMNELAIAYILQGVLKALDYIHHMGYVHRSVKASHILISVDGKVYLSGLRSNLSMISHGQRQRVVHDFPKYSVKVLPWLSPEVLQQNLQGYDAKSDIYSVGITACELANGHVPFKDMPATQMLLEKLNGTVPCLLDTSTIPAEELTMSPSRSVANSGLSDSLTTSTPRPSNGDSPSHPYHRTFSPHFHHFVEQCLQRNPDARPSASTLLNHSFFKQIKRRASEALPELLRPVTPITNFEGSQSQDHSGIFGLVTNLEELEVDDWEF

[5] = target: T2, Serine/threonine-protein kinase TAO2 (Homo sapiens, UniProt Q9UL54)
T2 sequence (Q9UL54 whole entry): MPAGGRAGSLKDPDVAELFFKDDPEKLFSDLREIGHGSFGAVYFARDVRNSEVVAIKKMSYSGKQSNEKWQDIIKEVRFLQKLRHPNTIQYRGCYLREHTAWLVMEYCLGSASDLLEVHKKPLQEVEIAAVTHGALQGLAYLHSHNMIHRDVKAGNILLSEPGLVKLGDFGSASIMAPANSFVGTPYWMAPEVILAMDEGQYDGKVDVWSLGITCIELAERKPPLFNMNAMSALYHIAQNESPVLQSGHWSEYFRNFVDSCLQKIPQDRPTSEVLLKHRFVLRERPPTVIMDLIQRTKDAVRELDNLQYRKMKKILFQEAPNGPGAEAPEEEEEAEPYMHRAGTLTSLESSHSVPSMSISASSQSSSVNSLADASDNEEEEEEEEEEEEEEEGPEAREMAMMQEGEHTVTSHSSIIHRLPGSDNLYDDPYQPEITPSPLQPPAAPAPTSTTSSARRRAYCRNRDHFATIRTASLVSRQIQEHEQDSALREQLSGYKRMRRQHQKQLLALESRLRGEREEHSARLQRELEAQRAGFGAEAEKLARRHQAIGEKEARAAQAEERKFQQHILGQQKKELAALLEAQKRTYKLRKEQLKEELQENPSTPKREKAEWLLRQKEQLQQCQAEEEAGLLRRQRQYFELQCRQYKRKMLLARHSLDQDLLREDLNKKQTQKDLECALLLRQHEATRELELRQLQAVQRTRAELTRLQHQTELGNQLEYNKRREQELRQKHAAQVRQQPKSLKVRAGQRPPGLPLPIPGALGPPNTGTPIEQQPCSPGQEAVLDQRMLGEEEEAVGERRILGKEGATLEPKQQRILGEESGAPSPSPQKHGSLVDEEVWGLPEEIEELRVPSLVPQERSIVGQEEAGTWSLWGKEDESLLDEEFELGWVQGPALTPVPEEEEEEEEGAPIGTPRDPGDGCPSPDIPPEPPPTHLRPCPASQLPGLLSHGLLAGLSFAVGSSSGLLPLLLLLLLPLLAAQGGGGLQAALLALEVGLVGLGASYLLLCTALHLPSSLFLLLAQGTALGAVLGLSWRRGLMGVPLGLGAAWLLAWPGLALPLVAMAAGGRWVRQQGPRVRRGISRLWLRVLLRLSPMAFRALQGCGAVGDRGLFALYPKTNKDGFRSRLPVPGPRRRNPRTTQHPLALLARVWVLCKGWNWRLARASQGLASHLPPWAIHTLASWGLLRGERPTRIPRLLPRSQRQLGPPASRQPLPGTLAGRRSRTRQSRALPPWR

Chain of Protein kinase C delta type (Q05655 whole entry): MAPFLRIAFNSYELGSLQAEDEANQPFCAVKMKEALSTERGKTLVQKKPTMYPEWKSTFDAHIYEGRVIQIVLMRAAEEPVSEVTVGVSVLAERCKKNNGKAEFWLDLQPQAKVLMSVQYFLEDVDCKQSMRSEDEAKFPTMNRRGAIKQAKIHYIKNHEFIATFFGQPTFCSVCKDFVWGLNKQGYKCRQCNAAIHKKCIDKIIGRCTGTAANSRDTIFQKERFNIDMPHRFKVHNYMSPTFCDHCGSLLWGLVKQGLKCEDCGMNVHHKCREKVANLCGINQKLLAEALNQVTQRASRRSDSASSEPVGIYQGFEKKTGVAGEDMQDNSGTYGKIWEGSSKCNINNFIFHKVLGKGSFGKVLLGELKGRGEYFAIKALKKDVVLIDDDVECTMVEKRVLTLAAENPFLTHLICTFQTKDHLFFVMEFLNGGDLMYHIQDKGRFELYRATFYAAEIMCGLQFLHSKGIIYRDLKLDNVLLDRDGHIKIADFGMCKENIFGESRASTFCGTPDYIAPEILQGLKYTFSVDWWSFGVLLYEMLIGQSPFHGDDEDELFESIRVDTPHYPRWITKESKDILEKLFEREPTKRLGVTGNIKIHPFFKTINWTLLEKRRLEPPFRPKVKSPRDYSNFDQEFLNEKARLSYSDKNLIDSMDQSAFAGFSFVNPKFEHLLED

Kd [1] | Kd [2] | Kd [3] | Kd [4] | Kd [5] | pKd [4] | Structure (SMILES) | pKd [1]
1.09 µM (active) | > 30 µM (inactive) | > 30 µM (inactive) | > 30 µM (inactive) | > 30 µM (inactive) |  | Cc1csc(-c2nnc(Nc3ccc(Oc4ncccc4-c4ccnc(N)n4)cc3)c3ccccc23)c1 [AMG-900] | 
> 30 µM (inactive) |  | 3.19 µM (active) | > 30 µM (inactive) | > 30 µM (inactive) |  | O=C(Nc1c[nH]nc1-c1nc2cc(CN3CCOCC3)ccc2[nH]1)NC1CC1 [AT-9283] | 
 |  |  | > 30 µM (inactive) |  |  | CNC(=O)c1ccccc1Sc1ccc2c(/C=C/c3ccccn3)n[nH]c2c1 [AXITINIB] | 
> 30 µM (inactive) | > 30 µM (inactive) | > 30 µM (inactive) | > 30 µM (inactive) | > 30 µM (inactive) |  | Cc1cc(C(=O)NOCCO)c(Nc2ccc(I)cc2F)n(C)c1=O [AZD-8330] | 
> 30 µM (inactive) | > 30 µM (inactive) | > 30 µM (inactive) | > 30 µM (inactive) | > 30 µM (inactive) |  | COc1c(OCCCN2CCOCC2)ccc2c1N=C(NC(=O)c1cnc(N)nc1)N1CCN=C21 [COPANLISIB] | 
> 30 µM (inactive) | > 30 µM (inactive) | > 30 µM (inactive) | > 30 µM (inactive) | > 30 µM (inactive) |  | Cc1cccc(-c2nn3c(c2-c2ccnc4ccc(C(N)=O)cc24)CCC3)n1 [GALUNISERTIB] | 
 |  |  | > 30 µM (inactive) |  |  | C[C@@H](Oc1cc(-n2cnc3ccc(CN4CCN(C)CC4)cc32)sc1C(N)=O)c1ccccc1C(F)(F)F [GSK-461364] | 
> 30 µM (inactive) | > 30 µM (inactive) | > 30 µM (inactive) | > 30 µM (inactive) | > 30 µM (inactive) |  | COc1ncc(-c2ccc3nccc(-c4ccnnc4)c3c2)cc1NS(=O)(=O)c1ccc(F)cc1F [OMIPALISIB] | 
 |  |  | > 30 µM (inactive) |  |  | O=C(NOCCO)c1cc(CN2OCCCC2=O)c(F)c(F)c1Nc1ccc(I)cc1F [RO-4987655] | 
 |  |  |  |  | 5.44 | N#CC[C@H](C1CCCC1)n1cc(-c2ncnc3[nH]ccc23)cn1 [RUXOLITINIB] | 
> 30 µM (inactive) | > 30 µM (inactive) | > 30 µM (inactive) | > 30 µM (inactive) | > 30 µM (inactive) |  | O=C1NC(=O)[C@@H](c2cn3c4c(cccc24)CCC3)[C@@H]1c1c[nH]c2ccccc12 [TIVANTINIB] | 

Structure (SMILES) | Kd [1] | Kd [2] | Kd [3] | Kd [4] | Kd [5] | pKd [4] | pKd [1]
NC(=O)Nc1cc(-c2cccc(F)c2)sc1C(=O)N[C@H]1CCCNC1 [AZD-7762] |  | 0.109 µM (active) | > 30 µM (inactive) | > 30 µM (inactive) | > 30 µM (inactive) |  | 6.03
Cn1cc(C2=C(c3cn(C4CCN(Cc5ccccn5)CC4)c4ccccc34)C(=O)NC2=O)c2ccccc21 [ENZASTAURIN] |  |  |  | > 30 µM (inactive) |  |  | 
CNC(=O)c1cc(Oc2ccc(NC(=O)Nc3cc(C(C)(C)C)nn3-c3ccc4ncccc4c3)c(F)c2)ccn1 [REBASTINIB] | > 30 µM (inactive) |  | > 30 µM (inactive) | > 30 µM (inactive) | > 30 µM (inactive) |  | 
CN1CCN(CCOc2cc(OC3CCOCC3)c3c(Nc4c(Cl)ccc5c4OCO5)ncnc3c2)CC1 [SARACATINIB] | > 30 µM (inactive) |  | > 30 µM (inactive) | > 30 µM (inactive) | > 30 µM (inactive) |  | 
